Experimental data: patent publication US20240254066A1, “RESCORCINOLS, METHODS FOR THEIR MANUFACTURE, AND USES THEREOF” (GW Research Limited, priority 2021, published 2024)

System: tonic hind limb extensor convulsions (mouse model of generalised seizure)
Assay: mini-MEST (maximal electroshock seizure threshold) test in the mouse
Conditions: for change in vivo at 5 mg/kg / change in vivo at 50 mg/kg: Mus musculus, ip, change in CC50; for change in vivo at 5 mg/kg: 0.25 h, read-out: % change from vehicle, 5 mg/kg i.p., 15 min post dose; for change in vivo at 50 mg/kg: 0.5 h, read-out: % change from vehicle, 50 mg/kg i.p., 30 min post dose
Protocol: The efficacy of novel resorcinols 2, 3, 5, 8, 10, 15, 16, 17, 18, 19, 41 45, 46, 53, 56 and 58 were tested in a novel mouse model of generalised seizure, the mini-MEST (maximal electroshock seizure threshold) test, which uses lower n numbers than typically used.
The maximal electroshock seizure threshold (MEST) test is widely utilized preclinically to evaluate pro- or anti-convulsant properties of test compounds (Loscher et al., 1991).
In the MEST test the ability of a drug to alter the seizure threshold current required to induce hind limb tonic extensor convulsions is measured according to an “up and down” method of shock titration (Kimball et al., 1957). An increase in seizure threshold is indicative of anti-convulsant effect.
The ability of a test compound to alter the stimulus intensity, expressed as current (mA), required to induce the presence of tonic hind limb extensor convulsions, is assessed in the MEST.
Naïve mice were acclimatised to the procedure room in their home cages for up to 7 days, with food and water available ad libitum.
All animals were weighed at the beginning of the study and randomly assigned to treatment groups based on a mean distribution of body weight across groups.
The first animal within a treatment group was given a shock at the expected or estimated CC50 current. For subsequent animals, the current was lowered or raised depending on the convulsions outcome from the preceding animal in log scale intervals.
Data generated from each treatment group were used to calculate the CC50±SEM values for the treatment group.
Vehicle: (5% ethanol, 10% solutol in 85% Saline) was prepared as follows: 1 mL of ethanol, 2 mL of solutol were warmed to 60° C., in 17 mL of saline (1:2:17).
The test compounds used were 2, 3, 5, 8, 10, 15, 16, 17, 18, 19, 41, 45, 46, 53, 56 and 58 Test compounds were administered at 5-50 mg/kg (i.p.) in a 1:2:17 ethanol:solutol:saline formulation.
Test compound effects were also calculated as percentage change in CC50 from the vehicle control group.
Significant difference between drug-treated animals and controls were assessed according to Litchfield and Wilcoxon (1949).

[1] = 5 mg/kg i.p., test 15 min post dose
[2] = 50 mg/kg i.p., test 30 min post dose

Structure (SMILES) | CC50 +/− SEM [1] | CC50 +/− SEM [2] | change in vivo at 5 mg/kg [%] | change in vivo at 50 mg/kg [%]
C=C(C)[C@@H]1C[C@H](O)C(C)=C[C@H]1c1c(O)cc(Cl)cc1O [Compound 2, (1′R,2′R,4′S)-4-Chloro-5′-methyl-2′-(prop-1-en-2-yl)-1′,2′,3′,4′-tetrahydro-[1,1′-biphenyl]-2,4′,6-triol] | 28.3 ± 1.1 mA | >114 mA | 7 | > 330
C=C(C)[C@@H]1C[C@H](O)C(C)=C[C@H]1c1c(O)cc(CC)cc1O [Compound 3, (1″R,2′R,4′S)-4-Ethyl-5′-methyl-2″-(prop-1-en-2-yl)-1′,2″,3″,4′-tetrahydro-[1,1″-biphenyl]-2,4′,6-triol] | 44.2 +/− 1.4 mA | 59.2 +/− 1.4 mA | 77 | 137
C=C(C)[C@@H]1C[C@H](O)C(C)=C[C@H]1c1c(O)cc(CCOC)cc1O [Compound 5, (1′R,2′R,4′S)-4-(2-Methoxyethyl)-5′-methyl-2′-(prop-1-en-2-yl)-1″,2′,3′,4′-tetrahydro-[1,1′-biphenyl]-2,4′,6-triol] | 23.5 +/− 0.3 mA | 50.5 +/− 0.7 mA | 0 | 115
C=C(C)[C@@H]1C[C@H](O)C(C)=C[C@H]1c1c(O)cc(/C=C/C)cc1O [Compound 7, (1′R,2′R,4′S)-5′-Methyl-4-((E)-prop-1-en-1-yl)-2′-(prop-1-en-2-yl)-1′,2′,3′,4′-tetrahydro-[1,1′-biphenyl]-2,4′,6-triol] | 29.0 ± 1.5 mA | 75.0 ± 3.4 mA | -2 | 153
C=C(C)[C@@H]1C[C@H](O)C(C)=C[C@H]1c1c(O)cc(C2CC2)cc1O [Compound 8, (1′R,2′R,4′S)-4-Cyclopropyl-5′-methyl-2′-(prop-1-en-2-yl)-1′,2′,3′,4′-tetrahydro-[1,1′-biphenyl]-2,4″,6-triol] | 24.5 ± 0.9 mA | 58.2 ± 2.0 mA | 9 | 159
C=C(C)[C@@H]1C[C@H](O)C(C)=C[C@H]1c1c(O)cc(C2=CCCC2)cc1O [Compound 9, (1′R,2′R,4′S)-4-(Cyclopent-1-en-1-yl)-5′-methyl-2′-(prop-1-en-2-yl)-1′,2′,3′,4′-tetrahydro-[1,1′-biphenyl]-2,4′,6-triol] |  | >131.0 mA |  | > 344
C=C(C)[C@@H]1C[C@H](O)C(C)=C[C@H]1c1c(O)cc(-c2cnn(C)c2)cc1O [Compound 10, (1′R,2′R,4′S)-5′-Methyl-4-(1-methyl-1H-pyrazol-4-yl)-2′-(prop-1-en-2-yl)-1′,2″,3′,4′-tetrahydro-[1,1′-biphenyl]-2,4′,6-triol] | 28.3 +/− 1.1 mA | 31.0 +/− 0.2 mA | 21 | 32
C=C(C)[C@@H]1C[C@H](O)C(C)=C[C@H]1c1c(O)cc(-c2cccc(OC)c2)cc1O [Compound 15, (1R,2R,4S)-3″-Methoxy-5-methyl-2-(prop-1-en-2-yl)-1,2,3,4-tetrahydro-[1,1′:4′,1″-terphenyl]-2′,4,6′-triol] |  | >114 mA |  | > 407
C=C(C)[C@@H]1C[C@H](O)C(C)=C[C@H]1c1c(O)cc(-c2ccnc(OC)c2)cc1O [Compound 16, (1′R,2′R,4′S)-4-(2-Methoxypyridin-4-yl)-5′-methyl-2′-(prop-1-en-2-yl)-1″,2′,3′,4′-tetrahydro-[1,1′-biphenyl]-2,4′,6-triol] |  | 70.5 +/− 1.3 mA |  | 213
C=C(C)[C@@H]1C[C@H](O)C(C)=C[C@H]1c1c(O)cc(-c2ccc(OC)nc2)cc1O [Compound 17, (1′R,2′R,4′S)-4-(6-Methoxypyridin-3-yl)-5′-methyl-2′-(prop-1-en-2-yl)-1′,2′,3′,4′-tetrahydro-[1,1′-biphenyl]-2,4′,6-triol] | 39.0 +/− 0.2 mA | >114 mA | 66 | > 385
C=C(C)[C@@H]1C[C@H](O)C(C)=C[C@H]1c1c(O)cc(-c2ccc(F)cc2)cc1O [Compound 18, (1R,2R,4S)-4″-fluoro-5-methyl-2-(prop-1-en-2-yl)-1,2,3,4-tetrahydro-[1,1′:4′,1″-terphenyl]-2′,4,6′-triol] | 31.0 ± 4.5 mA | 61.5 ± 1.3 mA | 38 | 178
C=C(C)[C@@H]1C[C@H](O)C(C)=C[C@H]1c1c(O)cc(-c2ccc(OC(F)F)nc2)cc1O [Compound 19, (1′R,2′R,4′S)-4-(6-(Difluoromethoxy)pyridin-3-yl)-5′-methyl-2′-(prop-1-en-2-yl)-1′,2″,3′,4′-tetrahydro-[1,1′-biphenyl]-2,4′,6-triol] | 38.0 ± 1.9 mA | 97.5 ± 1.3 mA | 43 | 268
C=C(C)[C@@H]1C[C@H](O)C(C)=C[C@H]1c1c(O)cc(C2=CCOCC2)cc1O [Compound 26, (1′R,2′R,4′S)-4-(3,6-Dihydro-2H-pyran-4-yl)-5′-methyl-2′-(prop-1-en-2-yl)-1′,2″,3′,4′-tetrahydro-[1,1′-biphenyl]-2,4′,6-triol] | 31.0 ± 0.2 mA | 50.0 ± 2.6 mA | 24 | 100
C=C(C)[C@@H]1C[C@H](O)C(C)=C[C@H]1c1c(O)cc(-c2ccccc2OC)cc1O [Compound 29, (1R,2R,4S)-2″-Methoxy-5-methyl-2-(prop-1-en-2-yl)-1,2,3,4-tetrahydro-[1,1′:4′,1″-terphenyl]-2″,4,6′-triol] | 35.0 ± 2.6 mA | 70.5 ± 1.3 mA | 32 | 166
C=C(C)[C@@H]1C[C@H](O)C(C)=C[C@H]1c1c(O)cc(-c2ccc(F)c(OC)c2)cc1O [Compound 30, (1R,2R,4S)-4″-Fluoro-3″-methoxy-5-methyl-2-(prop-1-en-2-yl)-1,2,3,4-tetrahydro-[1,1′:4′,1″-terphenyl]-2′,4,6′-triol] | 43.0 ± 1.9 mA | >131 mA | 62 | > 394
C=C(C)[C@@H]1C[C@H](O)C(C)=C[C@H]1c1c(O)cc(-c2cccc(OC(F)F)c2)cc1O [Compound 31, (1R,2R,4S)-3″-(Difluoromethoxy)-5-methyl-2-(prop-1-en-2-yl)-1,2,3,4-tetrahydro-[1,1′:4′,1″-terphenyl]-2′,4,6′-triol] | 33.0 ± 1.5 mA | 79.5 ± 1.3 mA | 25 | 200
C=C(C)[C@@H]1C[C@H](O)C(C)=C[C@H]1c1c(O)cc(-c2ccc(OC)cc2)cc1O [Compound 33, (1R,2R,4S)-4″-Methoxy-5-methyl-2-(prop-1-en-2-yl)-1,2,3,4-tetrahydro-[1,1′:4′,1″-terphenyl]-2′,4,6′-triol] | 38.8 ± 1.4 mA | 79.5 ± 0.9 mA | 47 | 200
